Activity calls are given as the source filed them.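 How the source made its calls: active means half-maximal concentration at most 10 µM and% response shifting at least 30 points across doses; inactive means the rest.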
What follows are molecules tested against Cell division control protein 42 homolog (Homo sapiens) (UniProt P60953) (assay: constitutively active Cdc42 guanine nucleotide binding blockers – biochemical, activated mutant, bead multiplex, flow cytometry, round 1, selectivity assay for Rab7 inhibitor project, SAR follow-up (AID 588384)). Details: GST-Cdc42 act beads, fluorescent GTP binding.
Sequence of Cell division control protein 42 homolog (Homo sapiens) (P60953 whole entry, looked up): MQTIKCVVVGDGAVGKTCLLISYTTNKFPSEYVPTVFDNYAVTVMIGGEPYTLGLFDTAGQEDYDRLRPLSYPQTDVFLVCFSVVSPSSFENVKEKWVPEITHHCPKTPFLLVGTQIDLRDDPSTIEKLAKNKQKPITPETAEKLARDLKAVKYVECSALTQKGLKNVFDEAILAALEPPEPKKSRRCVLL

Q: For `CC1(C)Cc2c(sc(NC(=S)NC(=O)c3cccc(Br)c3)c2C(=O)O)CO1`, which EC50 is on record?
A: The EC50 was 5.69 µM.

Q: For `CC1(C)Cc2c(sc(NC(=S)NC(=O)c3ccccc3F)c2C(=O)O)CO1`, which EC50 is on record?
A: Its EC50 is 0.051 µM.

Q: With `O=C(NC(=S)Nc1sc2c(c1C(=O)O)CCOC2)c1ccccc1` as the molecule, how does the EC50 read?
A: The EC50 was 0.044 µM.

Q: `CC1(C)Cc2c(sc(NC(=S)NC(=O)c3ccccc3Br)c2C(=O)O)CO1` was tested. Which EC50 did it give?
A: The EC50 was 0.054 µM.

Q: For `COc1cccc(C(=O)NC(=S)Nc2sc3c(c2C(=O)O)CC(C)(C)OC3)c1`, which EC50 is on record?
A: The EC50 was 0.054 µM.

Q: With `CC1(C)Cc2c(sc(NC(=O)NC(=O)c3ccccc3)c2C(=O)O)CO1` as the molecule, how does the EC50 read?
A: Its EC50 is 0.468 µM.

Q: Which EC50 does the source give for `CC1(C)Cc2c(sc(NC(=S)NC(=O)c3cccc(F)c3)c2C(=O)O)CO1` here?
A: The EC50 was 0.326 µM.

Q: For `CC1Cc2c(sc(NC(=S)NC(=O)c3ccccc3)c2C(=O)O)CO1` (stereo unspecified), which EC50 is on record?
A: Its EC50 is 0.09 µM.

Q: Which EC50 does the source give for `CC1(C)CCc2sc(NC(=S)NC(=O)c3ccccc3)c(C(=O)O)c2C1` here?
A: The EC50 was 0.108 µM.

Q: Which EC50 does the source give for `CC1(C)Cc2c(sc(NC(=S)NC(=O)c3ccc(Br)cc3)c2C(=O)O)CO1` here?
A: Its EC50 is 0.289 µM.

Q: With `COc1ccc(C(=O)NC(=S)Nc2sc3c(c2C(=O)O)CC(C)(C)OC3)cc1` as the molecule, how does the EC50 read?
A: The EC50 was 0.204 µM.

Same assay, conditions: GST-Cdc42 act beads, fluorescent GTP binding, at 100 µM (top of the series)

Q: Which “% response (lower = inhibition)” value does the source give for `Cc1ccc(Nc2nc3sc4c(c3c(=O)o2)CCN(C)C4)cc1` here?
A: Its value is “inactive”.

Q: For `CCOC(=O)c1c(NC(=O)Nc2ccc(F)cc2)sc2c1CCN(C)C2`, which “% response (lower = inhibition)” value is on record?
A: The value was “inactive”.

Q: `COC(=O)c1c(N)sc2c1CC(C)(C)OC2` was tested. Which “% response (lower = inhibition)” value did it give?
A: The value was “inactive”.

Q: With `CN1CCc2c(sc3nc(Nc4ccc(F)cc4)oc(=O)c23)C1` as the molecule, how does the “% response (lower = inhibition)” value read?
A: The value was “inactive”.

Q: Which “% response (lower = inhibition)” value does the source give for `CCOC(=O)c1c(NC(=S)Nc2ccccc2)sc2c1CC(C)(C)OC2` here?
A: The value was “inactive”.

Q: How did the “% response (lower = inhibition)” value turn out when `CCOC(=O)c1c(NC(=O)NC(C)(C)C)sc2c1CCN(C)C2` was run?
A: Its value is “inactive”.

Q: For `CCOC(=O)c1c(NC(=S)NC(=O)c2ccccc2)sc2ccccc12`, which “% response (lower = inhibition)” value is on record?
A: The value was “inactive”.

Q: With `CC1(C)Cc2c(sc(NC(=S)Nc3ccccc3)c2C(=O)O)CO1` as the molecule, how does the “% response (lower = inhibition)” value read?
A: Its value is “inactive”.

Q: Which “% response (lower = inhibition)” value does the source give for `CC(C)(C)OC(=O)c1c(NC(=S)NC(=O)c2ccccc2)sc2c1CCOC2` here?
A: Its value is “inactive”.

Q: `CCOC(=O)c1c(N)sc2ccccc12` was tested. Which “% response (lower = inhibition)” value did it give?
A: Its value is “inactive”.

Q: For `COC(=O)c1c(NC(=S)NC(=O)c2ccccc2)sc2c1CC(C)(C)OC2`, which “% response (lower = inhibition)” value is on record?
A: The value was “inactive”.

Q: With `CN1CCc2c(sc(NC(=O)Nc3ccc(F)cc3)c2C(=O)O)C1` as the molecule, how does the “% response (lower = inhibition)” value read?
A: The value was “inactive”.

Q: For `Cc1ccc(NC(=O)Nc2sc3c(c2C(=O)O)CCN(C)C3)cc1`, which “% response (lower = inhibition)” value is on record?
A: Its value is “inactive”.

Q: Which “% response (lower = inhibition)” value does the source give for `CC1(C)Cc2c(sc(NC(=O)Cc3ccccc3)c2C(=O)O)CO1` here?
A: The value was “inactive”.

Q: `CCOC(=O)c1c(NC(=O)Nc2ccc(C)cc2)sc2c1CCN(C)C2` was tested. Which “% response (lower = inhibition)” value did it give?
A: Its value is “inactive”.

Reference: PubChem BioAssay AID588384 (NMMLSC, 2011)
